Experimental findings from patent EP0470323A2, “New salts of the nicotinic acid with aminobenzylic compounds and their pharmaceutical use” (BROMLEY LIMITED, priority 1990, dated 1992) are described below.

Structures are written as SMILES.

One data set relates to HeLa cells (DnA-repair). Nature of the data set: Mutagenic action of urines of intragastrically treated rats on HeLa cells (DNA repair). The format is cell-based, human. The following applies: urines of rats treated intragastrically with two doses, with metabolic activation, beta-glucoronidase absent.
Data set [1] relates to five strains of Typhumurium Salmonella. Nature of the data set: Mutagenic action of urines of intragastrically treated rats on Salmonella. It is filed as cell-based. The note with it: urines of rats treated intragastrically with two doses, with metabolic activation, beta-glucoronidase absent.
Data set [2] deals with pl strain of Schiosaccharomyces Pombe. Put plainly: Frequency of mutations in yeast, with and without microsomal fraction. The format is cell-based. The note with it: tested dosages, with and without microsmial fraction. The source says:
(§1) The compound according to the Example 1 has been tested, in order to check and see its mutagenic effects.

For another data set, the system named is Schiosaccharomyces Pombe. Put plainly: Mutagenic action of urines of intragastrically treated rats on yeast. The note with it: urines of rats treated intragastrically with two doses, with metabolic activation, beta-glucoronidase absent. It is filed as cell-based.
In a further data set the test system is red cells in the rat. Nature of the data set: Red cell adhesivity / filtration, Teitel method. The format is in vivo. The following applies: listed as Compound as Ex. 1. The text has this:
steresis (Teiltel P.: Nouv. Rev. Franç. Hématol. 7, 195, 1967). Any alteration, almost undoubtely at the level of the red cell's membrane, cause some damaging variations of the red cell's elasticity thus making more difficult the passing through the capillary vessels having more reduced diameter, and therefore increasing the flow resistance in the peripheral vessels systems. In order to determine the effect caused by the compound according to the Example 1, on these features of the red cell, the method described by Schmidt, Schonbein and colleagues (Blut 26, 369, 1973) has been used.
In the circulatory flow, the above mentioned capillary vessels being excluded, the blood cells do normally circulate being attached between each other because of their adhesiveness. In order to study this adhesion force, the above mentioned Teitel method has been used. Male rats of 150 g body weight approximately have been employed, and they have been treated for three consecutive days with 0,5 mM/kg/os of the compound according to the Example 1, or otherwise Buflomedil, or even Pentosiphillin used as comparison substance. After the last treatment the animals, without eating from 18 hours, have been killed in a light ethereal anaesthesy and the blood was collected over an 0,2 molar EDTA (9 and 1 volumes respectively). The red cells filtering possibility, measured with the Teitel method, wherein the quantity of red cells passing, in high haematocritical conditions, through a paper filter with holes of 20-40 µm in a previously determined time, has been ascertained as follows: the blood was centrifuged for ten minutes at 2000 rpm in order to obtain the massing of the red cells, two ml of the blood collected as above were put into an upside down turned cone made with filtering paper, being previously wetted with a physiological solution. The volume passing through the filter in 2 - 4 - 8 and 16 minutes is then measured. The average filtration time T 1/2 is reckoned on semi-logarithmic paper by putting on the abscissae the logarithm of the time, and on the ordinates the percentage of blood filtered. In order to follow the Schmidt Schönbein method, the here after described proceeding has been performed: 0,2 ml of a suspension of red cells at 2% obtained by diluting the blood with the autological plasma, then it was placed into an appropriate device permitting to filter this blood through a filter (millipores) of 5 µm mashes at a filtration pressure of 50 mm water. With a chronometer one determines the time required for the passage of the whole sample through the filter.
At time same time, one measures, in the same conditions, the same parameter for a plasma sample. One calculates then the relative filtration time by dividing the time required to filter the diluted blood sample by the time being necessary to filter the plasma sample. For each group the average and the standard error of the individual data obtained was reckoned. The statistical evaluation was obtained by means of the Dunnett test.

The subject of data set [3] is HeLa human cells cultures. Put plainly: DNA repair synthesis (tritiated thymidine incorporation) in HeLa cell cultures. It is filed as cell-based. The note with it: vs controls treated with solvent, dosages tested.
From the text: as §1

For data set [4], the system named is aggregation of the platelets caused by the collagene. Put plainly: Anti-aggregating ex vivo activity against collagen in the rat. The following applies: for Latency time (sec.) / Transmittance percentage (maximum aggregation): PRP 2 hours after last treatment, collagene 4 mcg/ml. The protocol:
Six groups of 15 male rats of 200 - 250 g have been used.
The blood taken from the three rats of each group has been mixed and centrifuged during 6 minutes at 1400 rpm, at room temperature. After having taken the plasma full of platelets (PRP) the thereunder floating material has been centrifuged again (4000 rpm during 10 minutes) in order to have the plasma with few platelets (PPP) separated from the balance. The PRP has been diluted with a part of PPP in order to bring the number of platelets to 350 ± 50 x 10³/mm³. The aggregation has been evaluated in accordance with the method of Minsker D.H. and coll. (J. Pharmacol.Exp.Ther. 210 37 1979) by using an ELVI 840 two-channels aggregometer and an Omniscribe recorder B.500. A quantity of 0,25 ml PRP has been used, transferred into the aggregometer for two minutes at 37°C and stirred at 1000 rpm. The light intensity was arranged in such a way, to obtain 0% transmittance with the PRP and 100% with the PPP. After 2′ incubation, by means of microsyringe the collagene was added to the PRP in a volume quantity of 5 mcl with the final concentration of 4 mcg/ml.
From the aggregation trace of the recorder the following data have been evaluated: • a) latent time of the aggregation (seconds between the introductions of collagene and the starting of the aggregation) • b) transmittance increase percentage (maximum aggregation). The same proceeding was repeated for all animals, always by mixing the blood of three rats belonging to the same group and by obtaining in this manner five aggregation curves per group.

Where [5] appears, read: rat, 1,00 mM/kg os for 4 days, listed as Compound according to the Example N° 1.

With `COc1cc(OC)c(C(=O)CCCN2CCCC2)c(OC)c1` [Example 1, 4-(1 pyrrholydinyl)-1-(2,4,6 trimethoxypheniyl)-1-nicotinized butanone], the mutagenic action entry (with HeLa cells (DnA-repair); in data set [1]; with Schiosaccharomyces Pombe) was “any mutagenic action did not result” throughout. The frequency of mutations entry in data set [2] is “did not increase”. Moreover, the “Teitel method T1/2 min. M ± E.S.” value in the data set on red cells in the rat (dose 3 x 0,5 mM/kg/os (three consecutive days)) was 2,26 ± 0,21 min. For the same molecule, the “Teitel method Δ % vs contr.” value in the data set with red cells in the rat (dose 3 x 0,5 mM/kg/os) is listed as 37,9%. The “quantity of tritium-added Thymidine included into the DNA of the cells (repair synthese)” value in data set [3] was “did not determine any variation”. Besides, the “Latency time, % variation vs controls” value is listed as “+15,7%” in data set [4] (rat, 0,25 mM/kg os for 4 days); “+38,7%” in data set [4] (rat, 0,50 mM/kg os for 4 days); “+72,0%” in data set [4] (setting [5]). Besides, the “Transmittance percentage, % variation vs controls” value is recorded as -14,4% in data set [4] (rat, 0,25 mM/kg os for 4 days); -34,3% in data set [4] (rat, 0,50 mM/kg os for 4 days); -61,6% in data set [4] (setting [5]). The “Latency time (sec.)” value in data set [4] (rat, 0,25 mM/kg os for 4 days) is listed as 43,4 ± 4,2 sec; in data set [4] (rat, 0,50 mM/kg os for 4 days) it was 52,0 ± 3,5 sec; in data set [4] (setting [5]) it was 64,5 ± 5,4 sec. Besides, the “Transmittance percentage (maximum aggregation)” value in data set [4] (rat, 0,25 mM/kg os for 4 days) is 67,3 ± 4,4%; in data set [4] (rat, 0,50 mM/kg os for 4 days), 51,6 ± 4,0%; in data set [4] (setting [5]) it was 30,2 ± 3,6%.
